# Test results published in patent publication US11612604B2, “Methods of treating cancer with PLK4 inhibitors” (LUDWIG INSTITUTE FOR CANCER RESEARCH LTD, priority 2017, dated 2023).
# Biological target: T1, PLK4 (Homo sapiens, UniProt O00444)
# T1 sequence (O00444 1-970): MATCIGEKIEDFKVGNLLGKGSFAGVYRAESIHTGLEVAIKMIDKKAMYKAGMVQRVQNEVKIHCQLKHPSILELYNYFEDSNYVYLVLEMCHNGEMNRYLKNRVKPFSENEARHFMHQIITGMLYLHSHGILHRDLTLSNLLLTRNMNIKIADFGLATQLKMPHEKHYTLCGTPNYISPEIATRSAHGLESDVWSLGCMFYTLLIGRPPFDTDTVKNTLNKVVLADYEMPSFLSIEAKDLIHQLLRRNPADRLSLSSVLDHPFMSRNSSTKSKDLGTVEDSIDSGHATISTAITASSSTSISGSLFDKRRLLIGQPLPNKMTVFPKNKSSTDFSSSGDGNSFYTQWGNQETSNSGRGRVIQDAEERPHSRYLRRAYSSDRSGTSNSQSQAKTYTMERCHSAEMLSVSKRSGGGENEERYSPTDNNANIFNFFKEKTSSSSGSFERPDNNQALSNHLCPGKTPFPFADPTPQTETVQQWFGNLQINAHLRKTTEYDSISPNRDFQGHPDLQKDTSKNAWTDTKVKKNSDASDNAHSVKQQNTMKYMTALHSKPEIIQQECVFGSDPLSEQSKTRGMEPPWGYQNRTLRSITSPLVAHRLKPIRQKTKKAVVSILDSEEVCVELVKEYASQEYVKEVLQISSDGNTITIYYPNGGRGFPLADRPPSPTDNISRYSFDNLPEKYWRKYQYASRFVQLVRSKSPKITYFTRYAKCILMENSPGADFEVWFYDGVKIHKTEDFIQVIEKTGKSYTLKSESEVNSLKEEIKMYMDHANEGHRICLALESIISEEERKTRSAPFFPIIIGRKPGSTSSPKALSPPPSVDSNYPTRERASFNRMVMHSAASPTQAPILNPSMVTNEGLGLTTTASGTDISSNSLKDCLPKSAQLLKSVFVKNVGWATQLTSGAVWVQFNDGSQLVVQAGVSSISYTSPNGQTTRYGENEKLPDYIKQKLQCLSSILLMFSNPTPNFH
# Assay: Activity (IC50) of the Table 1 compounds as PLK4 inhibitors
# Format: biochemical
# Details: Table 1, IC50 class
row,Structure (SMILES),IC50
1,COc1c(Nc2cc(C)[nH]n2)nc(Sc2ccc(S(=O)(=O)Cc3cccc([N+](=O)[O-])c3F)cc2)nc1N1CCC(O)CC1,< 0.1 µM
2,COc1c(Nc2cc(C)[nH]n2)nc(Sc2ccc(S(=O)(=O)Cc3cccc([N+](=O)[O-])c3O)cc2)nc1N1CCN(CCN(C)C)CC1,< 0.1 µM
3,COc1c(Nc2cc(C)[nH]n2)nc(Sc2ccc(S(=O)(=O)Cc3cccc([N+](=O)[O-])c3)cc2)nc1N1C2CCC1COC2,< 0.1 µM
4,COc1c(Nc2cc(C)[nH]n2)nc(Sc2ccc(S(C)(=O)=O)cc2F)nc1N1CCC(CCN(C)C)CC1,< 0.1 µM
5,COc1c(Nc2cc(C)[nH]n2)nc(Sc2ccc(S(C)(=O)=O)cc2F)nc1N1CCN(CCN(C)C)CC1,< 0.1 µM
6,COc1c(Nc2cc(C)[nH]n2)nc(Sc2ccc(S(C)(=O)=O)cc2Cl)nc1N1CCN(CCN(C)C)CC1,< 0.1 µM
7,COc1c(Nc2cc(C)[nH]n2)nc(Sc2ccc(S(C)(=O)=O)cc2Cl)nc1N1CCC(CCN(C)C)CC1,< 0.1 µM
8,CCS(=O)(=O)c1ccc(Sc2nc(Nc3cc(C)[nH]n3)c(OC)c(N3CCOCC3)n2)c(Cl)c1,< 0.1 µM
9,COc1c(Nc2cc(C)[nH]n2)nc(Sc2ccc(S(=O)(=O)Cc3cccc([N+](=O)[O-])c3F)cc2F)nc1N1CCOC[C@H]1C,< 0.1 µM
10,COc1c(Cc2cc(C)[nH]n2)nc(Sc2ccc(S(=O)(=O)Cc3cccc([N+](=O)[O-])c3)cc2F)nc1N1CCOC[C@H]1C,< 0.1 µM
11,CCS(=O)(=O)c1ccc(Sc2nc(Nc3cc(C)[nH]n3)c(OC)c(N3CCN(CCN(C)C)CC3)n2)c(Cl)c1,< 0.1 µM
12,CCS(=O)(=O)c1ccc(Sc2nc(Nc3cc(C)[nH]n3)c(OC)c(N3CCN(C)CC3)n2)c(Cl)c1,< 0.1 µM

# Results, then the compound that gave them:
row,IC50,Structure (SMILES)
1,< 0.1 µM,COCCNc1nc(Sc2ccc(NC(=O)C3CC3)cc2)nc(Nc2cc(C)[nH]n2)c1OC
2,< 0.1 µM,COC(=O)c1ccccc1CS(=O)(=O)c1ccc(Sc2nc(Nc3cc(C)[nH]n3)c(OC)c(N3CCN(CCN(C)C)CC3)n2)cc1
3,< 0.1 µM,COc1c(Nc2cc(C)[nH]n2)nc(Sc2ccc(S(=O)(=O)Cc3ccccc3C(=O)N(C)C)cc2)nc1N1CCN(CCN(C)C)CC1
4,< 0.1 µM,COc1c(Nc2cc(C)[nH]n2)nc(Sc2ccc(S(=O)(=O)Cc3cccc(C(=O)O)c3)cc2)nc1N1CCN(CCN(C)C)CC1
5,< 0.1 µM,COc1c(Nc2cc(C)[nH]n2)nc(Sc2ccc(S(=O)(=O)Cc3ccccc3C(=O)O)cc2)nc1N1CCN(CCN(C)C)CC1
6,< 0.1 µM,COc1ccc([N+](=O)[O-])cc1CS(=O)(=O)c1ccc(Sc2nc(Nc3cc(C)[nH]n3)c(OC)c(N3CCN(CCN(C)C)CC3)n2)cc1
7,< 0.1 µM,COc1c(CS(=O)(=O)c2ccc(Sc3nc(Nc4cc(C)[nH]n4)c(OC)c(N4CCN(CCN(C)C)CC4)n3)cc2)cccc1[N+](=O)[O-]
8,< 0.1 µM,COc1c(Nc2cc(C)[nH]n2)nc(Sc2ccc(S(=O)(=O)Cc3cc([N+](=O)[O-])ccc3F)cc2)nc1N1CCN(CCN(C)C)CC1
9,< 0.1 µM,COc1c(Nc2cc(C)[nH]n2)nc(Sc2ccc(S(=O)(=O)Cc3cccc([N+](=O)[O-])c3)cc2F)nc1N1CCN(CCN(C)C)CC1
10,< 0.1 µM,COc1c(Nc2cc(C)[nH]n2)nc(Sc2ccc(S(=O)(=O)Cc3cccc([N+](=O)[O-])c3F)cc2)nc1N1CCCCC1
11,< 0.1 µM,COc1c(Nc2cc(C)[nH]n2)nc(Sc2ccc(S(=O)(=O)Cc3cc(F)cc([N+](=O)[O-])c3)cc2)nc1N1CCN(CCN(C)C)CC1
12,< 0.1 µM,COc1c(Nc2cc(C)[nH]n2)nc(Sc2ccc(S(=O)(=O)Cc3cccc([N+](=O)[O-])c3Cl)cc2)nc1N1CCN(CCN(C)C)CC1
13,< 0.1 µM,COc1c(Nc2cc(C)[nH]n2)nc(Sc2ccc(S(=O)(=O)Cc3cccc([N+](=O)[O-])c3F)cc2F)nc1N1CCN(CCN(C)C)CC1
14,< 0.1 µM,COc1c(Nc2cc(C)[nH]n2)nc(Sc2ccc(S(=O)(=O)Cc3cccc([N+](=O)[O-])c3)cc2F)nc1N1CCOCC1
15,< 0.1 µM,COc1c(Nc2cc(C)[nH]n2)nc(Sc2ccc(S(=O)(=O)Cc3cccc([N+](=O)[O-])c3)cc2F)nc1N1CCOC[C@@H]1C
16,< 0.1 µM,COc1c(Nc2cc(C)[nH]n2)nc(Sc2ccc(S(=O)(=O)Cc3cccc([N+](=O)[O-])c3C#N)cc2)nc1N1CCN(CCN(C)C)CC1
